Test results from PubChem BioAssay (NCI).
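48-hour exposure; five concentrations; linearly interpolated endpoints. The concentration for full growth arrest is given as TGI.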

Tests used:
Test in all cases: NCI-60 cell line screen, 48 h
786-0 renal = tested on: 786-0 renal
A498 renal = tested on: A498 renal
BT-549 breast = tested on: BT-549 breast
COLO 205 colon = tested on: COLO 205 colon
EKVX NSCLC = tested on: EKVX NSCLC
HS 578T breast = tested on: HS 578T breast
K-562 leukemia = tested on: K-562 leukemia
LOX IMVI melanoma = tested on: LOX IMVI melanoma
MCF7 breast = tested on: MCF7 breast
MDA-MB-231 breast = tested on: MDA-MB-231 breast
MOLT-4 leukemia = tested on: MOLT-4 leukemia
NCI-H23 lung = tested on: NCI-H23 lung
OVCAR-4 ovarian = tested on: OVCAR-4 ovarian
OVCAR-5 ovarian = tested on: OVCAR-5 ovarian
RPMI-8226 leukemia = tested on: RPMI-8226 leukemia
SF-268 CNS = tested on: SF-268 CNS
SNB-19 CNS = tested on: SNB-19 CNS
U251 CNS = tested on: U251 CNS
UO-31 renal = tested on: UO-31 renal

Structure (SMILES)	TGI (786-0 renal) [µM]	TGI (A498 renal) [µM]	TGI (BT-549 breast) [µM]	TGI (COLO 205 colon) [µM]	TGI (EKVX NSCLC) [µM]	TGI (HS 578T breast) [µM]	TGI (K-562 leukemia) [µM]	TGI (LOX IMVI melanoma) [µM]	TGI (MCF7 breast) [µM]	TGI (MDA-MB-231 breast) [µM]	TGI (MOLT-4 leukemia) [µM]	TGI (NCI-H23 lung) [µM]	TGI (OVCAR-4 ovarian) [µM]	TGI (OVCAR-5 ovarian) [µM]	TGI (RPMI-8226 leukemia) [µM]	TGI (SF-268 CNS) [µM]	TGI (SNB-19 CNS) [µM]	TGI (U251 CNS) [µM]	TGI (UO-31 renal) [µM]
COC1(C)CP(=O)(OC(C)C)CC(C)=C1Cl (configuration not stated)	60	37.6	46.6	30.2	29.6	> 100	7.89	39.4	18.6	34.1	> 100	32.4	28.6	39	24.4	> 100	63.7	48.9	34.2
NCCCCC(NC(=O)C(N)Cc1ccc(O)cn1)C(=O)O (configuration not stated)	> 100	> 100	> 100	> 100	> 100	> 100	> 100	> 100	> 100	> 100	> 100	> 100	> 100	> 100	> 100	> 100	> 100	> 100	> 100
c1ccc(-c2cn3c(nc4ccccc43)c(-c3ccccc3)n2)cc1	45.1	> 78.1	> 100	> 100	> 100	> 94.2	> 100	> 100	> 100	> 100	> 100	> 100	> 26	> 100	> 100	> 100	81.7	32.1	> 65.4
OC1(c2ccc(Cl)cc2)C(N2CCCC2)c2ccccc2C2=NCCN21 (configuration not stated)	> 100	60.9	65.2	23.9	> 100	89.9	47.5	36.7	94.8	> 100	93.8	92.7	87.9	> 100	32.1	> 100	> 100	> 100	> 100
COc1nc(N=P(c2ccccc2)(c2ccccc2)c2ccccc2)cc(=O)[nH]1	> 100	> 100	> 100	> 100	> 100	> 100	> 100	> 100	> 100	> 100	> 100	> 100	> 100	> 100	> 100	> 100	> 100	> 100	> 100
CCOC(=O)c1cc2c([nH]1)c(O)cc1c2ccn1Cc1ccccc1	32.6	82.4	32.2	39.8	26.7	77.4	25.3	28.1	44.4	49.1	14.1	28.1	35.4	41.4	27.9	51.3	28.2	31.6	29.3
COC(=O)c1cc2c(cc1CC1Cc3cc4c(cc3C1=O)CCC4)CCC2 (configuration not stated)	> 100	> 100	> 100	> 100	> 100	> 100	> 100	> 100	> 100	> 100	57.5	> 100	> 100	> 100	> 100	> 100	> 100	> 100	> 100
C/C(Cl)=N/OC(=O)Nc1ccc(S(N)(=O)=O)c(C)c1	4.29	41.3	25.1	4.14	13	> 79.4	3.35	6.19	29.1	22	6.12	39.3	29.3	34.4	6.49	> 61.3	32.3	33.7	28.1
CC(=O)N(C(C)=O)n1c(Cc2ccc(Cl)cc2)n[nH]c1=O	> 100	> 100	> 100	> 100	> 100	> 100	> 100	> 100	> 100	> 100	> 100	> 100	> 100	> 100	> 100	> 100	> 100	> 100	> 100
O=c1[nH]nc(-c2ccccc2)n1-c1ccncc1	> 100	> 100	> 100	> 100	> 100	> 100	> 100	> 100	> 100	> 100	> 100	> 100	> 100	> 100	> 100	> 100	> 100	> 100	> 100
COc1ccccc1NC(=S)Nc1cc(C)cc(C)n1	> 100	> 100	> 100	> 100	> 100	> 100	> 100	> 100	> 100	> 100	> 100	> 100	> 100	> 100	> 100	> 100	> 100	> 100	> 100
COC(=O)C1=C(O)C(C(=O)OC)[C@]2(O)[C@H](C(=O)OC)[C@H]1C[C@@H](c1ccc(Cl)cc1)[C@H]2C(=O)OC (some centres not stated)	23.9	27.2	38.9	25.1	30.6	30.2	> 100	30.1	24.1	37.6	> 100	22.9	> 100	40.3	> 100	29	29.8	20.9	21.4
O=C1CN(C(=O)C2CCCN2C(=O)C2CCCN2)C(=O)CN1 (configuration not stated)	> 100	> 100	> 100	> 100	> 100	> 100	> 100	> 100	> 100	> 100	> 100	> 100	> 100	> 100	> 100	> 100	> 100	> 100	> 100
